According to PMC11195995, “A homogeneous time-resolved fluorescence screen to identify SIRT2 deacetylase and defatty-acylase inhibitors” (PLOS ONE, 2024):
Entries after “also recorded” stand apart in the source; their conditions may differ. Where two headings read alike, the source gives them in different places. Primed or numbered codes have the meaning given here. Ends that are not written are not given here. * marks the point of attachment. Myristoyl = CCCCCCCCCCCCCC(=O)*; PEG4′ = PEG4 linker; FAM = fluorescein

What was measured:
[1] = target: T1, SIRT2 (Homo sapiens, UniProt Q8IXJ6); experiment: SIRT2 demyristoylase activity assay (MALDI-MS, myristoyl-H4K16 peptide); assay type: biochemical; details: for Demyristoylase IC50: 0.5 μM myristoyl-H4K16, 1 mM NAD+, 37°C, absolute IC50, "no effect" = 200 μM compound did not significantly affect SIRT2 activity
T1 sequence (Q8IXJ6 34-356): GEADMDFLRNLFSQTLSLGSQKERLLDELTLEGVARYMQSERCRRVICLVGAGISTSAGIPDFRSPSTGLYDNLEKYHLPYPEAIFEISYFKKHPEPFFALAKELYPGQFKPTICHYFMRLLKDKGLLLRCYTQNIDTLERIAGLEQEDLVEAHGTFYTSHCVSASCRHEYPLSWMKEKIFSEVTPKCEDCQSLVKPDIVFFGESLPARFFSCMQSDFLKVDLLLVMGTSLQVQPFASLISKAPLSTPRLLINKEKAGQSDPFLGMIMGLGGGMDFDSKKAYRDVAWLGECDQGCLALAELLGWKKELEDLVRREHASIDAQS
Protocol: (§1) The enzymatic activity of SIRT2 was measured using a MALDI-MS—based protocol reported previously. Reactions were performed at 37°C for 2.5 min in PBS containing 1 mM DTT and 1 mM of NAD^+. Acylated H4K16 peptides were used as the substrates at the following concentrations: acetyl-H4K16, 4 μM; decanoyl-H4K16, 0.2 μM; dodecanoyl-H4K16, 0.5 μM; myristoyl-H4K16, 0.5 μM. These concentrations correspond to the enzyme’s Km for each substrate under saturating NAD^+ conditions. The enzyme concentration in each reaction was chosen such that 20% or less of the substrate was processed by the enzyme when the reactions were quenched. In dose-response assays showing a reduction in SIRT2 activity by increasing amounts of ligand, the data was fit with standard sigmoidal dose-response curves as we previously described. We report absolute IC50 values from the curves which reflect ligand concentrations that reduce the activity of the enzyme by 50% compared to control (no ligand) samples. Assays measuring the effects of ligand on SIRT1 deacetylase and SIRT6 demyristoylase activities were performed similarly, as previously described.

[2] = target: T1, SIRT2; experiment: SIRT2 deacetylase activity assay (MALDI-MS, acetyl-H4K16 peptide); assay type: biochemical; details: for Deacetylase IC50: 4 μM acetyl-H4K16, 1 mM NAD+, 37°C, absolute IC50, "no effect" = 200 μM compound did not significantly affect SIRT2 activity
Protocol: as §1

[3] = target: T1, SIRT2; experiment: 1-aminoanthracene binding competition assay, SIRT2 alone
Protocol: Competition assays where 1-aminoanthracene was displaced from SIRT2 by 2, 4, 5, and 6 were performed as previously reported where we described its displacement from SIRT2 by 3. The assays were also cuvette-based and performed at 23°C in PBS with 1 mM DTT, and the final DMSO concentration was 0.6%. Briefly, the fluorescence intensity of 100 nM 1-aminoanthracene was measured in the presence of 4 μM SIRT2 and increasing amounts of ligand using excitation/emission wavelengths of 390 nm/520 nm. As previously described, displacement of 1-aminoanthracene from SIRT2 by a competitor results in a reduction of its fluorescence.
(§2) We determined and report absolute IC50 values from the curves which reflect ligand concentrations that reduce the fluorescence by 50% compared to control (no ligand) samples.

[4] = tested on: acetylated alpha-tubulin in A549 cells; experiment: Immunofluorescence staining of acetylated alpha-tubulin in A549 cells; assay type: cell-based, human; details: 25 μM, 6 hours
Protocol: 100,000 A549 or A549 SIRT2-KO cells were seeded on a coverslip that was placed in the well of 6-well plate, and the cells were grown overnight in full DMEM. […] The cells were then washed three times with PBS, fixed with 4% paraformaldehyde for 10 min, then washed again three times with PBS. Cells were incubated with 0.2% Triton X-100 for 15 minutes on a shaker followed by three more PBS washes. The cells were then blocked with 2% BSA in PBS for 1 hour at room temperature. […] Slides were imaged using a Keyence BZ-X710 fluorescence microscope with the following filter settings: DAPI, excitation/emission was 300–400 nm/438-484 nm; Alexa Fluor 488, excitation/emission was 448 nm/500-550 nm. All images were obtained under identical conditions, and fluorescence intensities were quantified using Fiji/ImageJ without any manipulation to the images. The fluorescence intensity from at least six cells per coverslip were randomly selected and measured targeting the cytosol (for measuring acetylated alpha-tubulin levels via Alexa Fluor 488) or the nucleus (for measuring nuclear DNA staining via DAPI). Relative fluorescence intensity was calculated as the ratio of Alexa Fluor 488/DAPI intensities. […]

[5] = tested on: A549 cells; experiment: Cell viability MTT assay; assay type: cell-based, human; details: 72 hours treatment, concentrations shown in Fig 4F and 4G
Protocol: 5,000 A549 cells were seeded in a 96-well plate in full DMEM. The total volume in each well was 150 μl, and the DMSO concentration was 0.7%. After this treatment period, 10 μl of MTT reagent was added to each well, then the cells were cultured for 4 hour before adding 100 μl of crystal dissolving solution for another 16 hour incubation (Cayman Chemical, catalog #10009365). The absorbance in each well was measured at 570 nm and was used to determine the cell viability by comparing the absorbance of drug treated cells to control (DMSO treated) cells.

[6] = tested on: acetylated alpha-tubulin in A549 SIRT2-KO cells; experiment: Immunofluorescence staining of acetylated alpha-tubulin in A549 SIRT2-KO cells; assay type: cell-based, human; details: 25 μM, 6 hours
[7] = target: T1, SIRT2; experiment: SIRT2 binding competition assay using Cy3-myristoyl-H4K16 peptide; details: concentrations as high as 100 μM
Protocol: Competition assays where Cy3-myristoyl-H4K16 peptide was displaced from SIRT2 by 1 were performed as previously described. Assays were performed in PBS with 1 mM DTT at 23°C in a quartz microcuvette (160 μl assay volume). Briefly, the fluorescence intensity of 50 nM Cy3-myristoyl-H4K16 peptide was measured in the presence of 2.5 μM SIRT2 and increasing amounts of 1 using excitation/emission wavelengths of 535 nm/560 nm. The final DMSO concentration in each measurement was 0.6%. As previously described, displacement of Cy3-myristoyl-H4K16 peptide from SIRT2 by a competitive ligand results in a reduction of its fluorescence.
as §2, with “The data from both competition assays show a reduction in probe fluorescence at increasing concentrations of competitor ligands. […] We” for “We”

[8] = target: SIRT2—decanoyl peptide complex; design: method as in PMID 32941003; details: cited from earlier work
[9] = target: T1, SIRT2; details: read-out: IC50 for SIRT2 demyristoylase activity; cited from earlier work
[10] = target: T1, SIRT2; details: cited from earlier work
[11] = target: T2, human SIRT2 catalytic domain (6xHis-SUMO-SIRT2) (Homo sapiens, UniProt Q8IXJ6)
T2 sequence (Q8IXJ6 34-356): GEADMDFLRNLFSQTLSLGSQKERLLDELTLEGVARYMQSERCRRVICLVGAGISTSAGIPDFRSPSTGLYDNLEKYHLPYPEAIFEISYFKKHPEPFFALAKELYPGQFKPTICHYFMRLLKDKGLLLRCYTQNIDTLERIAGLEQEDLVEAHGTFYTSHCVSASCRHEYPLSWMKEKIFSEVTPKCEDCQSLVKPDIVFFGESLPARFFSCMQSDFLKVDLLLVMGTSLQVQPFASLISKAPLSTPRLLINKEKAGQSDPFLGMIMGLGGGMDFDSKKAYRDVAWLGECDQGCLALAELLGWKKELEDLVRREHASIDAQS

[12] = target: T2, human SIRT2 catalytic domain (6xHis-SUMO-SIRT2); experiment: biochemical
[13] = target: T2, human SIRT2 catalytic domain (6xHis-SUMO-SIRT2); experiment: SIRT2—myristoyl-peptide HTRF binding assay (displacement of FAM-myristoyl-H4K16 peptide); details: at the highest ligand concentrations
[14] = target: T3, SIRT2 catalytic domain (human, amino acids 34-356), 6xHis-SUMO tag removed (human, UniProt Q8IXJ6 34-356); experiment: ITC; PBS, 25°C; 20 uM SIRT2 in the cell, 200 uM peptide in the syringe; one site binding model; details: both partners purified
T3 construct: human SIRT2 catalytic domain, amino acids 34-356; also called sirtuin-2; source: tag removed, chromatographically purified; not shown: His6, N-terminal, cleaved; SUMO, N-terminal, cleaved
T3 sequence (looked up): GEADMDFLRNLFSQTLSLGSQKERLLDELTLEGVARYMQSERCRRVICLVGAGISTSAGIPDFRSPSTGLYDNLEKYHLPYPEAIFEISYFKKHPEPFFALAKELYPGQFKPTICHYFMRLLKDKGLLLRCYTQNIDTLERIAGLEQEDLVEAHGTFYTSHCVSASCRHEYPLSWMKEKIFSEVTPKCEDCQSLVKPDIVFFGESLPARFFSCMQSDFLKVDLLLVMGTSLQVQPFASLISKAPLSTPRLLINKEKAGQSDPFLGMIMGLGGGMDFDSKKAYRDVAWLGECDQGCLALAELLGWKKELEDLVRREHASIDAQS

[15] = target: T4, 6xHis-SUMO-SIRT2 (human SIRT2 catalytic domain, amino acids 34-356, with N-terminal 6xHis-SUMO tag) (human, UniProt Q8IXJ6 34-356); experiment: AlphaScreen or HTRF; competition; 3 nM SIRT2, 0.2 nM terbium cryptate-labeled antibody, 3 nM FAM-myristoyl-H4K16 peptide, 10 ul/well; unlabeled myristoyl-H4K16 peptide as competitor; details: both partners purified
T4 construct: human SIRT2 catalytic domain, amino acids 34-356; Used in the HTRF assays; held near the FRET donor by a terbium cryptate-labeled anti-6xHis antibody (a tool); also called His tagged-SIRT2; sirtuin-2; not shown: His6, N-terminal, kept; SUMO, N-terminal, kept
T4 sequence (looked up): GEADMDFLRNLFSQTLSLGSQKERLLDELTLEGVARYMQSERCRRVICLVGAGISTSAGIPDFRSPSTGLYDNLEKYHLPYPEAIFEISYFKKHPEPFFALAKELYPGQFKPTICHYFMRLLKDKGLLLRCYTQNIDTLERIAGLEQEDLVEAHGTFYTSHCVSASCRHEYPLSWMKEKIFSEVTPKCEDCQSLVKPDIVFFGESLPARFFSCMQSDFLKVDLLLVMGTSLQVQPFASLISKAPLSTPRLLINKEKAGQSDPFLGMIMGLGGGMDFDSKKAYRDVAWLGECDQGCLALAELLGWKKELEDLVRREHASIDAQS

[16] = target: T4, 6xHis-SUMO-SIRT2 (human SIRT2 catalytic …); experiment: AlphaScreen or HTRF; direct binding; 6xHis-SUMO-SIRT2 and FAM-myristoyl-H4K16 peptide 0-10 nM each, 0.2 nM anti-6xHis terbium cryptate-labeled antibody as FRET donor; 384-well plates, room temperature, 10 mM Hepes-NaOH pH 7.4, 150 mM NaCl, 5 mM DTT, 0.005% Tween-20; apparent Kd; details: both partners purified

Oc1ccc(Br)cc1C(F)(F)F [compound 11, 4-bromo-2-(trifluoromethyl)phenol]
Demyristoylase IC50 [1]: no effect
Deacetylase IC50 [2]: no effect

Oc1c(F)cc(Br)cc1I [compound 9, 4-bromo-2-fluoro-6-iodophenol]
Demyristoylase IC50 [1]: no effect
Deacetylase IC50 [2]: no effect

CCCCOc1cc(F)c(O)c(F)c1 [compound 13, 4-butoxy-2,6-difluorophenol]
Demyristoylase IC50 [1]: no effect
Deacetylase IC50 [2]: no effect

CCCCCc1ccc(C)cc1O [compound 6, 5-methyl-2-pentylphenol]
IC50 ([3]; SIRT2 only, 100 nM 1-aminoanthracene, 4 μM SIRT2): 81 µM
Kd ([3]; read-out: SIRT2 Kd): 73 µM

Cc1cc(C)nc(SCC(=O)Nc2ncc(Cc3cccc4ccccc34)s2)n1 [SirReal2, reference compound]
level of acetylated alpha-tubulin (immunofluorescence) [4]: increased acetylated alpha-tubulin to similar levels as 1; also recorded: enhanced fluorescence
viability / toxicity in A549 cells (MTT) [5]: did not cause toxicity; also recorded: no effect
level of acetylated alpha-tubulin (immunofluorescence) [6]: no effect

O=C1CSc2nc3ccccc3n21 [compound 15, [1, 3]thiazolo[3,2-a]benzimidazole-3(2H)-one]
IC50 [1]: 117 µM
Deacetylase IC50 [2]: not effective; also recorded: no effect
displacement of Cy3-myristoyl-H4K16 peptide from SIRT2 / interaction with SIRT2 [7]: too weak to measure a Kd; also recorded: did not efficiently displace
displacement of 1-aminoanthracene from SIRT2 ([3]; concentrations as high as 100 μM): did not efficiently displace

Nc1cccc2cc3ccccc3cc12 [1-aminoanthracene]
Kd [8]: 4 µM
IC50 [9]: 21 µM
Kd ([10]; read-out: Kd for SIRT2 alone): 37 µM

Cc1ccc(C(=O)Nc2ccc(S(=O)(=O)O)c3cc(S(=O)(=O)O)cc(S(=O)(=O)O)c23)cc1NC(=O)c1cccc(NC(=O)Nc2cccc(C(=O)Nc3cc(C(=O)Nc4ccc(S(=O)(=O)O)c5cc(S(=O)(=O)O)cc(S(=O)(=O)O)c45)ccc3C)c2)c1 [suramin]
IC50 [9]: 95 µM

Cc1ccc(C(C)C)c(O)c1 [compound 4, 2-isopropyl-5-methylphenol]
IC50 [3]: 128 µM
Kd [3]: 116 µM

FC(F)(F)C1(c2ccccc2)N=N1 [compound 8, 3-phenyl-3-(trifluoromethyl)-3H-diazirine]
Demyristoylase IC50 [1]: no effect
IC50 [2]: 114 µM

COc1ccc(NC(=O)c2ccc3c(SCC(=O)O)c4c(nc3c2)CCCC4)c(OC)c1 [C598-0017]
IC50 [11]: 6.34 µM

Oc1c(F)cc(Br)cc1F [compound 12, 4-bromo-2,6-difluorophenol]
Demyristoylase IC50 [1]: no effect
Deacetylase IC50 [2]: no effect

Oc1c(I)cc(Br)cc1I [compound 10, 4-bromo-2,6-diiodophenol]
Demyristoylase IC50 [1]: no effect
Deacetylase IC50 [2]: no effect

Oc1cc(C(F)(F)F)ccc1F [compound 14, 2-fluoro-5-(trifluoromethyl)phenol]
Demyristoylase IC50 [1]: no effect
Deacetylase IC50 [2]: no effect

CCCCCCCCCCCCCCCC(=O)OC[C@H](O)[C@H]1OC(=O)C(O)=C1O [ascorbyl palmitate]
IC50 [12]: 2 µM
IC50 [9]: 8 to 23 µM
maximum reduction of HTRF FRET signal (displacement of FAM-myristoyl-H4K16 peptide) [13]: ~ 40%
Kd ([10]; read-out: published Kd for SIRT2): 3 to 5 µM

KGLGKGGAK(Myristoyl)RHRK
Kd [14]: 0.013 µM
IC50 [15]: 0.002 µM

{FAM-PEG4′}-KGLGKGGAK(Myristoyl)RHRK
Kd [16]: ~0.001 µM
